Data from PubChem BioAssay AID1259407 (Chemical Carcinogenesis Research Information System (CCRIS), 2018).
Activity calls are given as the source filed them. How the calls were made is not given here.

System: CCRIS mutagenicity, Ames/micronucleus/aberration tests
Experiment: CCRIS mutagenicity studies

Measured: mutagenic call

Nc1ccc2c(c1)CN1C(=O)c3ccccc3C1=N2
active: Test System: AMES SALMONELLA TYPHIMURIUM, Strain/Indicator: DJ400, Metabolic Activation: RAT, LIVER, S-9, AROCLOR 1254, Method: PREINCUBATION active; positive | Test System: AMES SALMONELLA TYPHIMURIUM, Strain/Indicator: DJ460, Metabolic Activation: RAT, LIVER, S-9, AROCLOR 1254, Method: PREINCUBATION active; positive | Test System: AMES SALMONELLA TYPHIMURIUM, Strain/Indicator: TA98(1,8-DNP6), Metabolic Activation: RAT, LIVER, S-9, AROCLOR 1254, Method: PREINCUBATION active; positive | Test System: AMES SALMONELLA TYPHIMURIUM, Strain/Indicator: TA98, Metabolic Activation: NONE, Method: PREINCUBATION active; positive | Test System: AMES SALMONELLA TYPHIMURIUM, Strain/Indicator: TA98, Metabolic Activation: RAT, LIVER, S-9, AROCLOR 1254, Method: PREINCUBATION active; positive | Test System: AMES SALMONELLA TYPHIMURIUM, Strain/Indicator: TA100, Metabolic Activation: NONE, Method: PREINCUBATION active; positive | Test System: AMES SALMONELLA TYPHIMURIUM, Strain/Indicator: TA100, Metabolic Activation: RAT, LIVER, S-9, AROCLOR 1254, Method: PREINCUBATION active; positive | Test System: AMES SALMONELLA TYPHIMURIUM, Strain/Indicator: TA102, Metabolic Activation: NONE, Method: PREINCUBATION active; positive | Test System: AMES SALMONELLA TYPHIMURIUM, Strain/Indicator: TA102, Metabolic Activation: RAT, LIVER, S-9, AROCLOR 1254, Method: PREINCUBATION active; positive | Test System: AMES SALMONELLA TYPHIMURIUM, Strain/Indicator: TA1538(1,8-DNP6), Metabolic Activation: RAT, LIVER, S-9, AROCLOR 1254, Method: PREINCUBATION active; positive | Test System: AMES SALMONELLA TYPHIMURIUM, Strain/Indicator: TA1538, Metabolic Activation: RAT, LIVER, S-9, AROCLOR 1254, Method: PREINCUBATION active; positive | Test System: AMES SALMONELLA TYPHIMURIUM, Strain/Indicator: YG1012, Metabolic Activation: RAT, LIVER, S-9, AROCLOR 1254, Method: PREINCUBATION active; positive | Test System: AMES SALMONELLA TYPHIMURIUM, Strain/Indicator: YG1024, Metabolic Activation: RAT, LIVER, S-9, AROCLOR 1254, Method: PREINCUBATION active; positive | Test System: UDS MOUSE HEPATOCYTES, Strain/Indicator: THY INCORP, Metabolic Activation: NONE, Method: AUTORADIOGRAPHY active; positive | Test System: UDS RAT HEPATOCYTES, Strain/Indicator: THY INCORP, Metabolic Activation: NONE, Method: AUTORADIOGRAPHY active; positive
